Data from US9796711B2, “Substituted pyrazolo[3,4-b]pyridin-6-carboxylic acids and method of use” (AbbVie S.àr.l., priority 2015, dated 2017).

How the values were obtained:
[1] = target: T1, ΔF508-CFTR (Homo sapiens, UniProt P13569, DEL508-508); test: CFTR cell surface levels using HRP-tagged ΔF508-CFTR expressing CFBE cells, intrinsic corrector capacity; format: cell-based; details: HRP-tagged ΔF508-CFTR expressing CFBE cells, intrinsic corrector capacity (no co-corrector), 33° C., 20 hours; for EC50: read-out: EC50
T1 construct: host or cells: CFBE41o-, doxycycline-inducible
Summary of the method: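 Here the cells express ΔF508-CFTR with horseradish peroxidase inserted in extracellular loop 4, so only rescued channel at the surface gives luminescent signal. Compounds act on their own, 20 h at the reduced temperature of 33 °C; values are percent activity relative to DMSO and a 3 μM corrector.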

[2] = target: T1, ΔF508-CFTR; test: CFTR cell surface levels using HRP-tagged ΔF508-CFTR expressing CFBE cells, in the presence of a co-corrector; format: cell-based; details: HRP-tagged ΔF508-CFTR expressing CFBE cells, in the presence of 3 μM co-corrector; for EC50: read-out: EC50
Summary of the method: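 Cells were seeded with 0.5 μg/mL doxycycline and held 68 h at 37 °C. Test compounds plus 3 μM co-corrector (final 0.1% DMSO) were then added for 20 h at 33 °C. Washed cells received HRP substrate, and luminescence was normalized between DMSO and 3 μM co-corrector controls.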

T1 sequence (P13569 with tags, fused parts or gaps DEL508-508): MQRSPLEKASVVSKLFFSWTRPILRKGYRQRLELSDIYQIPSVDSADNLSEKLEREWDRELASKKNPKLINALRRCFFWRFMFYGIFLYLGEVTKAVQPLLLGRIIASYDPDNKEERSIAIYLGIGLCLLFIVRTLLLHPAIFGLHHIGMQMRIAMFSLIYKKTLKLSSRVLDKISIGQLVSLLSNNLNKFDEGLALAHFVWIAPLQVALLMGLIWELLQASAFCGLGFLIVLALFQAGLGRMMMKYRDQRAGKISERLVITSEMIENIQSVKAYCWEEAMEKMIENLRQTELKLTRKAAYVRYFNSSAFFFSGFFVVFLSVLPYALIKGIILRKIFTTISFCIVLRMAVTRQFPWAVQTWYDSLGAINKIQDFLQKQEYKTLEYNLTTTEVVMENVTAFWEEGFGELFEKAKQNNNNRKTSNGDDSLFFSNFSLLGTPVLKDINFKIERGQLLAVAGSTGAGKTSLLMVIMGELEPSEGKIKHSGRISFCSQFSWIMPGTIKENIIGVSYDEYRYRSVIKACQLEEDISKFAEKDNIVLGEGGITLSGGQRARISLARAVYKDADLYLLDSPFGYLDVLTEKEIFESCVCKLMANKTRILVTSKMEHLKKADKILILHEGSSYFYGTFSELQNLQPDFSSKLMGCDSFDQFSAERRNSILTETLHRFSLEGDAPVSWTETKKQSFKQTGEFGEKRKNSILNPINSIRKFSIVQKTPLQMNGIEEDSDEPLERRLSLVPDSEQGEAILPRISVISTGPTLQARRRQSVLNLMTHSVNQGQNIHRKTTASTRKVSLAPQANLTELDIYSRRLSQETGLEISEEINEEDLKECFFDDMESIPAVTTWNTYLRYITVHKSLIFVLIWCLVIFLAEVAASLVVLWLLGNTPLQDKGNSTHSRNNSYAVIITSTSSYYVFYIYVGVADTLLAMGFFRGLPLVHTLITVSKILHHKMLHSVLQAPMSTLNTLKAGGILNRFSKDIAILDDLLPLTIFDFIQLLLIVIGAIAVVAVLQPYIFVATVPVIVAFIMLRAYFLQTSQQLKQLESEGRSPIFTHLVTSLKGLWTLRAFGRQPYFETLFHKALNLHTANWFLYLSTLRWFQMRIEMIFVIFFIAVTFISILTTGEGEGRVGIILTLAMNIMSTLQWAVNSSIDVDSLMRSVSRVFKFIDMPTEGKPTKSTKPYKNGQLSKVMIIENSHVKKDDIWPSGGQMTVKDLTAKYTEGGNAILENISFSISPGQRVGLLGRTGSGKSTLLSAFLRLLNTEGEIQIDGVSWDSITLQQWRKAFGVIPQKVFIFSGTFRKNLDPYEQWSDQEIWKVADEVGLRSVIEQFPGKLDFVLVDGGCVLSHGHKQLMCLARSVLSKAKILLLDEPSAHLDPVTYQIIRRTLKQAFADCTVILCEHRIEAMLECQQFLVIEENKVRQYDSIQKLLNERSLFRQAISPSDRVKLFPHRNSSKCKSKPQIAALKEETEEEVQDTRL

| SMILES | % Activation [1] | EC50 [1] | % Activation [2] | EC50 [2] |
| --- | --- | --- | --- | --- |
| COC1CCCN(c2cc(C(=O)O)nc3c2c(C2CCC2)nn3-c2ccccc2)C1 (stereo not drawn) [compound 468, 3-cyclobutyl-4-(3-methoxypiperidin-1-yl)-1-phenyl-1H-pyrazolo[3,4-b]pyridine-6-carboxylic acid] | 120.3% | 618 nM | 297.2% | 371 nM |
| CC(C)N1CNC(=O)C12CCN(c1cc(C(=O)O)nc3c1c(C1CCC1)nn3-c1ccccc1)CC2 [compound 469, 3-cyclobutyl-4-[4-oxo-1-(propan-2-yl)-1,3,8-triazaspiro[4.5]decan-8-yl]-1-phenyl-1H-pyrazolo[3,4-b]pyridine-6-carboxylic acid] | 198.95% | 1120 nM | 360.3% | 716 nM |
| O=C(O)c1cc(N2CCN(CC(F)(F)F)CC2)c2c(C3CCC3)nn(-c3ccccc3)c2n1 [compound 470, 3-cyclobutyl-1-phenyl-4-[4-(2,2,2-trifluoroethyl)piperazin-1-yl]-1H-pyrazolo[3,4-b]pyridine-6-carboxylic acid] | 147.5% | 736 nM | 311.25% | 427 nM |
| O=C(O)c1cc(N2CCN(CCCO)CC2)c2c(C3CCC3)nn(-c3ccccc3)c2n1 [compound 471, 3-cyclobutyl-4-[4-(3-hydroxypropyl)piperazin-1-yl]-1-phenyl-1H-pyrazolo[3 ,4-b]pyridine-6-carboxylic acid] | 106.45% | 3340 nM | 259.9% | 2990 nM |
| O=C(O)c1cc(N2CCN(CC(=O)N3CCCC3)CC2)c2c(C3CCC3)nn(-c3ccccc3)c2n1 [compound 472, 3-cyclobutyl-4-{4-[2-oxo-2-(pyrrolidin-1-yl)ethyl]piperazin-1-yl}-1-phenyl-1H-pyrazolo[3,4-b]pyridine-6-carboxylic acid] | 144% | 2490 nM | 292.55% | 1380 nM |
| O=C(O)c1cc(N2CCCCCC2)c2c(C3CCC3)nn(-c3ccccc3)c2n1 [compound 473, 4-(azepan-1-yl)-3-cyclobutyl-1-phenyl-1H-pyrazolo[3,4-b]pyridine-6-carboxylic acid] | 102.9% | 1020 nM | 280.9% | 545 nM |
| O=C(O)c1cc(N2CCN(CC(=O)N3CCOCC3)CC2)c2c(C3CCC3)nn(-c3ccccc3)c2n1 [compound 474, 3-cyclobutyl-4-{4-[2-(morpholin-4-yl)-2-oxoethyl]piperazin-1-yl}-1-phenyl-1H-pyrazolo[3,4-b]pyridine-6-carboxylic acid] | 125.3% | 3340 nM | 301.35% | 2250 nM |
| O=C(O)c1cc(N2CCN3C[C@H](O)C[C@H]3C2)c2c(C3CCC3)nn(-c3ccccc3)c2n1 [compound 475, 3-cyclobutyl-4-[(7R,8aS)-7-hydroxyhexahydropyrrolo[1,2-a]pyrazin-2(1H)-yl]-1-phenyl-1H-pyrazolo[3,4-b]pyridine-6-carboxylic acid] | 35.755% | 6670 nM | 163.35% | 2720 nM |
| CC1(COc2cc(C(=O)O)nc3c2c(C2CCC2)nn3-c2ccccc2)CC(F)(F)C1 [compound 476, 3-cyclobutyl-4-[(3,3-difluoro-1-methylcyclobutyl)methoxy]-1-phenyl-1H-pyrazolo[3,4-b]pyridine-6-carboxylic acid] | 121.45% | 513 nM | 297.8% | 386 nM |
| O=C(O)c1cc(OCCC2CC(F)(F)C2)c2c(C3CCC3)nn(-c3ccccc3)c2n1 [compound 477, 3-cyclobutyl-4-[2-(3,3-difluorocyclobutyl)ethoxy]-1-phenyl-1H-pyrazolo[3,4-b]pyridine-6-carboxylic acid] | 97.78% | 1020 nM | 266.3% | 501 nM |
| CC(C)N(CCOc1cc(C(=O)O)nc2c1c(C1CCC1)nn2-c1ccccc1)C1COC1 [compound 478, 3-cyclobutyl-4-{2-[(oxetan-3-yl)(propan-2-yl)amino]ethoxy}-1-phenyl-1H-pyrazolo[3,4-b]pyridine-6-carboxylic acid] | 125.2% | 828 nM | 292% | 409 nM |
| CC(=O)N1CCC(F)(COc2cc(C(=O)O)nc3c2c(C2CCC2)nn3-c2ccccc2)CC1 [compound 479, 4-[(1-acetyl-4-fluoropiperidin-4-yl)methoxy]-3-cyclobutyl-1-phenyl-1H-pyrazolo[3,4-b]pyridine-6-carboxylic acid] | 114.41% | 1850 nM | 317.77% | 1850 nM |
| O=C(O)c1cc(OC[C@@H]2CCCO2)c2c(C3CCC3)nn(-c3ccccc3)c2n1 [compound 480, 3-cyclobutyl-4-{[(2S)-oxolan-2-yl]methoxy}-1-phenyl-1H-pyrazolo[3,4-b]pyridine-6-carboxylic acid] | 115.15% | 862 nM | 270.4% | 364 nM |
| COC1CN(C(=O)COc2cc(C(=O)O)nc3c2c(C2CCC2)nn3-c2ccccc2)C1 [compound 481, 3-cyclobutyl-4-[2-(3-methoxyazetidin-1-yl)-2-oxoethoxy]-1-phenyl-1H-pyrazolo[3,4-b]pyridine-6-carboxylic acid] | 48.6% | 3340 nM | 210.3% | 3050 nM |
| CN1CCC([C@@H](F)COc2cc(C(=O)O)nc3c2c(C2CCC2)nn3-c2ccccc2)CC1 [compound 482, 3-cyclobutyl-4-[(2R)-2-fluoro-2-(1-methylpiperidin-4-yl)ethoxy]-1-phenyl-1H-pyrazolo[3,4-b]pyridine-6-carboxylic acid] | 144.75% | 1640 nM | 284.7% | 709 nM |
| O=C(O)c1cc(OCCOC2COC2)c2c(C3CCC3)nn(-c3ccccc3)c2n1 [compound 483, 3-cyclobutyl-4-{2-[(oxetan-3-yl)oxy]ethoxy}-1-phenyl-1H-pyrazolo[3,4-b]pyridine-6-carboxylic acid] | 142.4% | 897 nM | 267% | 367 nM |
| COCCC1(CCOc2cc(C(=O)O)nc3c2c(C2CCC2)nn3-c2ccccc2)CC1 [compound 484, 3-cyclobutyl-4-{2-[1-(2-methoxyethyl)cyclopropyl]ethoxyl}-1-phenyl-1H-pyrazolo[3,4-b]pyridine-6-carboxylic acid] | 113.5% | 1110 nM | 226.6% | 369 nM |
| COCCC1(COc2cc(C(=O)O)nc3c2c(C2CCC2)nn3-c2ccccc2)CC1 [compound 485, 3-cyclobutyl-4-{[1-(2-methoxyethyl)cyclopropyl]methoxyl}-1-phenyl-1H-pyrazolo[3,4-b]pyridine-6-carboxylic acid] | 107.5% | 1070 nM | 242.05% | 335 nM |
| O=C(O)c1cc(OCC2CCCC2(F)F)c2c(C3CCC3)nn(-c3ccccc3)c2n1 (stereo not drawn) [compound 486, 3-cyclobutyl-4-[(2,2-difluorocyclopentyl)methoxy]-1-phenyl-1H-pyrazolo[3,4-b]pyridine-6-carboxylic acid] | 127% | 603 nM | 299% | 335 nM |
| O=C(O)c1cc(OCCCN2CCOCC2)c2c(C3CCC3)nn(-c3ccccc3)c2n1 [compound 487, 3-cyclobutyl-4-[3-(morpholin-4-yl)propoxy]-1-phenyl-1H-pyrazolo[3,4-b]pyridine-6-carboxylic acid] | 142.7% | 835 nM | 316.5% | 491 nM |
| O=C(O)c1cc(OCCC2OCCCO2)c2c(C3CCC3)nn(-c3ccccc3)c2n1 [compound 488, 3-cyclobutyl-4-[2-(1,3-dioxan-2-yl)ethoxy]-1-phenyl-1H-pyrazolo[3,4-b]pyridine-6-carboxylic acid] | 95.49% | 755 nM | 261.9% | 462 nM |
| O=C(O)c1cc(OCCCF)c2c(C3CCC3)nn(-c3ccccc3)c2n1 [compound 489, 3-cyclobutyl-4-(3-fluoropropoxy)-1-phenyl-1H-pyrazolo[3,4-b]pyridine-6-carboxylic acid] | 106.4% | 1860 nM | 274.95% | 770 nM |
| CC1(COc2cc(C(=O)O)nc3c2c(C2CCC2)nn3-c2ccccc2)COC1 [compound 490, 3-cyclobutyl-4-[(3-methyloxetan-3-yl)methoxy]-1-phenyl-1H-pyrazolo[3,4-b]pyridine-6-carboxylic acid] | 144.95% | 400 nM | 311.1% | 296 nM |
| COCC(COC)Oc1cc(C(=O)O)nc2c1c(C1CCC1)nn2-c1ccccc1 [compound 491, 3-cyclobutyl-4-[(1,3-dimethoxypropan-2-yl)oxy]-1-phenyl-1H-pyrazolo[3,4-b]pyridine-6-carboxylic acid] | 82.97% | 2280 nM | 256.5% | 966 nM |
